Measured values taken from PubChem BioAssay AID540258 (Broad Institute, 2011).
The source made the active and inactive calls.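 The calls were made as follows: active = fitted curve reaching 40% activation at or below the top valid dose tested; inconclusive = flat curve at 30 to 70% activation, or poor fit; inactive = the rest.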

Tested on: SK-MEL-5 TRPM1 promoter luciferase reporter, 24 h
Test: activation of TRPM1 promoter luciferase in melanoma cells – SK-MEL-5 cells, cherry-pick samples, dose response (AID 540258);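 also: potency for activators that raise TRPM1 promoter luciferase signal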

Question: For COc1ccc(NC(=O)CN(C)C(=O)CNC(=O)c2sc3ccccc3c2Cl)cc1, which AC40 is on record?
Answer: 7.78 µM

Question: For CC(=O)c1cnc2c(-c3cccc(Br)c3)cnn2c1C, which AC40 is on record?
Answer: 13.2 µM

Question: Cc1nc(N)sc1N=Nc1ccc(F)cc1 was tested. Which AC40 did it give?
Answer: 6.62 µM

Question: With Nc1nc(-c2cc(-c3ccccc3)no2)cs1 as the compound, how does the AC40 read?
Answer: 0.331 µM

Question: Which AC40 does the source give for CCC(C)c1ccc(NC(=O)Nc2cccnc2)cc1 (centres undefined) here?
Answer: 2.21 µM

Question: For CC(C)(C)c1csc(N/N=C/c2ccc(O)cc2)n1, which AC40 is on record?
Answer: 17.8 µM

Question: Which AC40 does the source give for Cc1ccc(N(O)C(=O)NCCCCNC(=O)N(O)c2ccc(C)cc2)cc1 here?
Answer: 15.5 µM

Question: Which AC40 does the source give for c1ccc(-c2nc3ccccc3[nH]2)cc1 here?
Answer: 1.81 µM

Question: For O=C(c1ccc(F)cc1)c1ccc(N2CCCCC2)cc1, which AC40 is on record?
Answer: 1.49 µM

Question: For CC(=O)c1cccc(OCc2cc(C(=O)N(C)Cc3cnccn3)no2)c1, which AC40 is on record?
Answer: 9.27 µM

Question: Which AC40 does the source give for O=C(N=Nc1c(O)n(Cc2ccccc2)c2ccccc12)c1ccc(O)cc1 here?
Answer: 0.86 µM

Question: For O=C(Nc1ccc(F)cc1Cl)c1ccc2c(=O)n3c(nc2c1)CCC3, which AC40 is on record?
Answer: 3.5 µM

Question: How did the AC40 turn out when CCCN(CCC)c1ncnc2c1cnn2-c1ccc(OC)cc1 was run?
Answer: 0.256 µM

Question: For O=C(NC1CCCCCC1)c1c(O)c2ccccc2[nH]c1=O, which AC40 is on record?
Answer: 1.1 µM

Question: For O=C(NC1CCCCCC1)c1cc2c(=O)n3ccccc3nc2s1, which AC40 is on record?
Answer: 8.63 µM

Question: CCCC(=O)N/C(N)=N/c1nc2ccccc2o1 was tested. Which AC40 did it give?
Answer: 0.558 µM

Question: How did the AC40 turn out when O=C(Cc1ccccc1F)Nc1ccc(SC(F)F)cc1 was run?
Answer: 1.98 µM

Question: Which AC40 does the source give for Cc1ccccc1S(=O)(=O)/N=C(/Nc1nc2ccccc2s1)c1ccccc1 here?
Answer: 31 µM

Question: For CCS(=O)(=O)c1ccc2oc(Nc3ccccc3C)nc2c1, which AC40 is on record?
Answer: 3.65 µM

Question: Which AC40 does the source give for c1ccc(-c2nc(-c3nccc4ccccc34)oc2-c2ccccc2)cc1 here?
Answer: 3.61 µM

Question: Cc1ccccc1Nc1nc(N)nc(COC(=O)c2ccccc2)n1 was tested. Which AC40 did it give?
Answer: 7.87 µM

Question: With CC(C)c1ccc(N=C2NN=C(c3cccs3)CS2)cc1 as the compound, how does the AC40 read?
Answer: 0.547 µM

Question: Which AC40 does the source give for COc1cccc2cc(CC(=O)c3ccc(C)cc3C)c(=O)oc12 here?
Answer: 11.9 µM

Question: With Cc1nc2cc3nc(C)sc3cc2s1 as the compound, how does the AC40 read?
Answer: 7.83 µM

Question: O=C(NCC1CC1)Nc1ccc(Cl)cc1 was tested. Which AC40 did it give?
Answer: 12.9 µM

Question: Which AC40 does the source give for O=C(c1cnn2ccccc12)N1CCc2ccccc21 here?
Answer: 1.28 µM

Question: Cc1ccc(CNc2nc(C)cs2)cc1 was tested. Which AC40 did it give?
Answer: 1.05 µM

Question: How did the AC40 turn out when COc1ccc(NC(=O)n2ncc3cc(Cl)ccc32)cc1OC was run?
Answer: 5.31 µM

Question: Which AC40 does the source give for Cc1ccc2cc(NC(=O)c3ccccc3C)ccc2n1 here?
Answer: 1.69 µM

Question: Which AC40 does the source give for O=C(Nc1ccccn1)c1ccccc1 here?
Answer: 14.8 µM

Question: For Cc1ccc(-c2cn(-c3ccccc3)c(=S)[nH]2)cc1C, which AC40 is on record?
Answer: 0.997 µM

Question: How did the AC40 turn out when Nc1ccc(C#Cc2ccc3c(=O)c4ccccc4oc3c2)cc1 was run?
Answer: 4.44 µM

Question: How did the AC40 turn out when CCC(=O)Nc1sc(C(=O)Nc2ccccc2F)c(C)c1C(=O)OC was run?
Answer: 0.568 µM

Question: How did the AC40 turn out when CN1CCN(/N=C/c2ccc(Br)cc2)CC1 was run?
Answer: 6 µM

Question: CC(=O)c1ccc(Nc2ccc(-c3ccccc3C)nn2)cc1 was tested. Which AC40 did it give?
Answer: 4.2 µM

Question: For O=C(NCc1ccc2c(c1)OCO2)Nc1cccc(Cl)c1, which AC40 is on record?
Answer: 8.57 µM

Question: Which AC40 does the source give for C=CCNc1nc(-c2ccc(Cl)cc2)cs1 here?
Answer: 0.639 µM

Question: Which AC40 does the source give for O=c1oc2cc(Cl)ccc2n1CSc1nc2ccccc2s1 here?
Answer: 4.25 µM

Question: Which AC40 does the source give for O=c1c2ccccc2oc2cc(NCCCn3ccnc3)ccc12 here?
Answer: 0.989 µM

Question: For O=C(O)c1ccccc1N/N=C/c1cc(Br)cc(Br)c1O, which AC40 is on record?
Answer: 4.58 µM

Question: Which AC40 does the source give for CCc1ccc(NC(=O)c2n[nH]c(=O)c3ccccc23)cc1 here?
Answer: 1.1 µM

Question: With Clc1ccccc1/C=C/c1nc(-c2cccnc2)no1 as the compound, how does the AC40 read?
Answer: 1.2 µM

Question: How did the AC40 turn out when COc1ccc(/C=C2\OC(=O)c3c(OC)cccc32)cc1OC was run?
Answer: 0.998 µM

Question: CCCC(=O)N1c2ccc(-c3csc(N)n3)cc2CC1C (centres undefined) was tested. Which AC40 did it give?
Answer: 1.65 µM

Question: Cc1ccc2cc(/C=N/Nc3ccc(C(=O)O)cc3)c(Cl)nc2c1 was tested. Which AC40 did it give?
Answer: 1.37 µM

Question: Which AC40 does the source give for CCCc1ccc(OCc2nc(-c3ccc(NC(=O)c4cccs4)cc3)no2)cc1 here?
Answer: 14.2 µM

Question: How did the AC40 turn out when c1ccc(CSc2ccc(-c3ccc4c(c3)OCO4)nn2)cc1 was run?
Answer: 2.38 µM

Question: CCN1CCN(c2ccc(NC(=O)c3cccc(F)c3)cc2Cl)CC1 was tested. Which AC40 did it give?
Answer: 3.08 µM

Question: How did the AC40 turn out when Cc1ccc(CSc2ccc(-c3cccs3)nn2)cc1 was run?
Answer: 2.71 µM

Question: Which AC40 does the source give for CCCC(=O)c1ccc(N2CCCCCC2)c(F)c1 here?
Answer: 3.36 µM

Question: With O=C(Nc1ccccc1O)c1cc2cc(Br)ccc2oc1=O as the compound, how does the AC40 read?
Answer: 2.18 µM

Question: Clc1ccccc1OCc1nnc(-c2ccccc2Br)o1 was tested. Which AC40 did it give?
Answer: 2.43 µM

Question: CSc1nc2ccc(NC(=O)c3cccs3)cc2s1 was tested. Which AC40 did it give?
Answer: 2.16 µM

Question: How did the AC40 turn out when O=C(O)c1ccc(-c2nc(-c3ccc(Cl)cc3)cs2)cc1 was run?
Answer: 0.309 µM

Question: How did the AC40 turn out when c1cc(-c2cc3cc4c(cc3cn2)OCO4)cs1 was run?
Answer: 2.12 µM

Question: For COC(=O)/C(=C1\Oc2ccc(C(C)(C)C)cc2S1)C(F)(F)F, which AC40 is on record?
Answer: 3.81 µM

Question: Which AC40 does the source give for COC(=O)c1cn(CC(=O)NCc2cccs2)c2ccccc12 here?
Answer: 9.32 µM

Question: For Cc1ccc(OC(=O)c2cccc(S(=O)(=O)N3CCCC3)c2)c(-n2nc3ccccc3n2)c1, which AC40 is on record?
Answer: 1.41 µM

Question: With c1ccc2oc(-c3ccc4nc[nH]c4c3)nc2c1 as the compound, how does the AC40 read?
Answer: 0.866 µM

Question: Which AC40 does the source give for c1ccc(CSCc2cn3ccsc3n2)cc1 here?
Answer: 11.2 µM

Question: For Cc1ccc(O)c(C2=Nc3ccccc3C2(C)C)c1, which AC40 is on record?
Answer: 8.51 µM

Question: Cc1csc2nc(CSc3nc4ccccc4o3)c(Br)n12 was tested. Which AC40 did it give?
Answer: 1.35 µM

Question: How did the AC40 turn out when N/C(=N\OC(=O)C12CC3CC(CC(C3)C1)C2)c1ccccn1 was run?
Answer: 8.23 µM

Question: Which AC40 does the source give for CC(=O)c1cnc2nc(SCc3ccccc3)nn2c1C here?
Answer: 2.29 µM

Question: For Cc1ccc(NC(=O)Nc2ccc3c(c2)OCO3)c(OC(F)F)c1, which AC40 is on record?
Answer: 2.14 µM

Question: How did the AC40 turn out when COc1cc(/C=C/c2nc3ccccc3c(=O)[nH]2)ccc1OC(F)F was run?
Answer: 0.98 µM

Question: O=C(NC1CCCC1)c1cc(-c2ccc(Cl)cc2Cl)on1 was tested. Which AC40 did it give?
Answer: 0.393 µM

Question: How did the AC40 turn out when c1ccc(CSCc2nc3ccccc3[nH]2)cc1 was run?
Answer: 6.65 µM

Question: With COC(=O)c1c(C)[nH]c(/C=N/Nc2ccccc2)c1C as the compound, how does the AC40 read?
Answer: > 35 µM (inactive)

Question: How did the AC40 turn out when COc1ccc(-c2nnc(-c3ccc4ccccc4c3)o2)cc1 was run?
Answer: 4.3 µM

Question: How did the AC40 turn out when CCCCc1ccc(Nc2ncnc3nc[nH]c23)cc1 was run?
Answer: 3.37 µM

Question: With CC(=O)c1ccc2oc3ccccc3c(=O)c2c1 as the compound, how does the AC40 read?
Answer: 10.1 µM

Question: Which AC40 does the source give for CCN(CC)C(=O)CCc1nnc(Cc2cccc(C(F)(F)F)c2)o1 here?
Answer: 1.95 µM

Question: Which AC40 does the source give for CSc1nccc(N/N=C/c2ccccc2)n1 here?
Answer: 0.491 µM

Question: With Oc1ccc(Br)cc1/C=N/N1CCCCC1 as the compound, how does the AC40 read?
Answer: 1.75 µM

Question: How did the AC40 turn out when Cc1cnc(NC(=O)Nc2ccc(Cl)cc2)s1 was run?
Answer: 1.38 µM

Question: For Clc1ccc(-c2cc(CSc3ccccc3)on2)cc1, which AC40 is on record?
Answer: 1.45 µM

Question: O=C(NCCc1ccccc1)c1nccc2ccccc12 was tested. Which AC40 did it give?
Answer: 19.2 µM

Question: For Cc1ccc(NCCC(=O)c2cccs2)cc1C, which AC40 is on record?
Answer: 6.77 µM

Question: Cc1cc(NC(=O)Nc2ccc3c(ccn3C)c2)sn1 was tested. Which AC40 did it give?
Answer: 7.89 µM

Question: For O=C(CC(Nc1ccccc1)C(=O)O)c1ccccc1 (centres undefined), which AC40 is on record?
Answer: 0.749 µM

Question: Which AC40 does the source give for COc1ccc2c(c1)CC/C(=C\Nc1ccc3c(c1)OCO3)C2=O here?
Answer: 2.3 µM

Question: O=c1oc(-c2cccs2)nc2sc3c(c12)CCCCC3 was tested. Which AC40 did it give?
Answer: 6.42 µM

Question: With O=C(Nc1ccc(C(F)(F)F)cc1)c1ccccc1 as the compound, how does the AC40 read?
Answer: 3.48 µM

Question: Which AC40 does the source give for O=C(c1nnc(-c2ccc(Cl)cc2)o1)C1CCCC1 here?
Answer: 10.3 µM

Question: With COC(=O)C1CCCCN1C(=O)c1ccc2oc(Cc3ccccc3)nc2c1 (centres undefined) as the compound, how does the AC40 read?
Answer: 3.18 µM

Question: Which AC40 does the source give for Cc1ccc(S(=O)(=O)Nc2cccc(-c3ccc(N4CCCCCC4)nn3)c2)cc1 here?
Answer: 4.9 µM

Question: How did the AC40 turn out when COc1ccc2cc(C(=O)NCCc3ccccc3)[nH]c2c1 was run?
Answer: 11.6 µM

Question: How did the AC40 turn out when Cc1ccc2c(CN3CCC(C)CC3)cc(=O)oc2c1C was run?
Answer: 8.33 µM

Question: CC1CCC(NC(=O)c2ccc(NS(=O)(=O)c3ccc4[nH]c(=O)[nH]c4c3)cc2)CC1 (centres undefined) was tested. Which AC40 did it give?
Answer: 25.1 µM

Question: For Cc1ccccc1-c1nc(Cc2ccccc2)no1, which AC40 is on record?
Answer: 2.78 µM

Question: Which AC40 does the source give for CC(=O)Nc1nnc(COc2ccc(Cl)cc2)s1 here?
Answer: 3.16 µM

Question: Which AC40 does the source give for CC1CCN(c2oc(-c3ccccc3Cl)nc2C#N)CC1 here?
Answer: 10.9 µM

Question: For Cc1ccc(C(=O)Nc2cccc(O)c2)cc1S(=O)(=O)N1CCCCCC1, which AC40 is on record?
Answer: 8.12 µM
